In ChEMBL document CHEMBL1158693, “Antiinsectan decaturin and oxalicine analogues from Penicillium thiersii” (2005) one finds Activity data, which are given here for 5 compounds.

Holding throughout (type): functional
What all share (design): scale not given: the % may be the effect or the level left

The subject of experiment [1] is Spodoptera frugiperda. In words: Antiinsecticidal activity against Spodoptera frugiperda assessed as reduction in growth rate at 360 ppm relative to control.
Experiment [2] concerns Spodoptera frugiperda. In words: Antiinsecticidal activity against Spodoptera frugiperda assessed as reduction in growth rate at 100 ppm relative to control.
Experiment [3] has as its system Spodoptera frugiperda. The experiment in a line: Antiinsecticidal activity against Spodoptera frugiperda assessed as reduction in growth rate at 80 ppm relative to control.

Each structure is given as a SMILES string.

Regarding `C=C(C)[C@@H]1CC[C@]2(C)[C@H](CC=C(C)[C@]23Oc2cc(-c4cccnc4)oc(=O)c2[C@@H]3O)[C@@]12CCC(=O)OC2` [OXALICINE A], the Activity in experiment [1] turned out to be 98%.
On to `CC1=CC[C@@H]2[C@@]3(C)CCC(=O)C(C)(C)[C@@H]3CC[C@@]2(C)[C@]12Cc1c(cc(-c3cccnc3)oc1=O)O2` [DECATURIN D], for which the Activity in experiment [2] is on record as 77%.
On to `CC1=CC[C@@H]2[C@]34CC[C@](O)(OC3)C(C)(C)[C@@H]4CC[C@@]2(C)[C@]12Cc1c(cc(-c3cccnc3)oc1=O)O2` [DECATURIN C], for which the Activity in experiment [3] came out at 28%.
In the case of `C=C(C)[C@]1(O)CC[C@]2(C)[C@H](CC=C(C)[C@]23Oc2cc(-c4cccnc4)oc(=O)c2[C@@H]3O)[C@@]12CCC(=O)OC2` [OXALICINE B], the Activity in experiment [2] was determined as 62%.
For `CC1=CC[C@@H]2[C@]34CC[C@](O)(OC3)C(C)(C)[C@@H]4CC[C@@]2(C)[C@@]12Oc1cc(-c3cccnc3)oc(=O)c1[C@@H]2O` [DECATURIN B], the Activity in experiment [2] was 89%.
